Read-outs that look alike come from different tables or passages of the source.

The target of the test is T1, DR1Dw1 (Homo sapiens, UniProt P01903+P01911, A100R/D57E/F55L/F60I/F76Y/I96L/L162R/M171V/P40L/Q125E/R42F/V115G/Y59C).
T1 construct: these are Drosophila transmembrane DR; made in house; host or cells: Drosophila (cells)
Kind of test: Inhibition of biotinylated RMBP 90-102 peptide binding to MHC class II DR1 (europium-streptavidin capture assay). Here is the method: In studies optimizing the assay it was determined that only between 5 to 10% of the DR molecules are capable of binding added peptide. Therefore, the effective concentration of DR1Dw1 and DR4Dw4 was approximately 0.125 and 1.0 nM, respectively. […] The DR-peptide complexes (50 μL) are transferred to wells of a 96-well EIA plate precoated with LB3.1, the monoclonal antibody which recognizes the DR alleles of MHC Class II, and blocked with PBS with fetal calf serum (FCS). An additional 50 μL of 50 mM Tris, pH 7.0, containing 0.75% octyl glucoside is added to each well and the mixture incubated overnight at 4° C. Excess peptide is removed by washing with PBS containing 0.05% Tween 20 (Polyoxyethylene sorbitan monolaurate) and 0.01% NaN3. Europium-labeled streptavidin (Wallac Inc.) is added and incubated overnight. After washing, complexes are measured by the addition of Enhance™ buffer, the tradename for 0.1M acetate phthalate buffer, pH 3.2, containing 0.1% Triton X-100, tradename for polyoxyethylene ethers and other surface active compounds of Union Carbide Chemicals and Plastics Co., Inc. (particularly, a non-ionic surfactant for recovery of membrane components under non-denaturing conditions) 15 μM 2-naphthoyltrifluoroacetone, and 50 μM tri-N-octylphosphine oxide, which buffer releases the chelated europium from streptavidin and forms a highly fluorescent micellar solution. The resultant fluorescence is measured using a fluorescent plate reader (e.g., DELPHIA, Wallac, Inc.). The data are analyzed using a four-parameter logistical curve […] program (e.g., SigmaPlot) that calculates the concentration of biotinylated peptide giving a half-maximal signal (ED50).
The inhibition assay format is identical to the procedure described above with the exception that the unlabeled antagonist is serially diluted and incubated with constant concentrations of biotinylated RMBP 90-102 (0.3 nM for DR1Dw1 or 0.9 nM for DR4Dw4) and the MHC class II proteins. The concentration of unlabeled compound that prevents 50% of the labeled peptide from binding is the IC50 value. The concentration of the biotinylated RMBP 90-102 in each assay is experimentally determined to be […] one-sixth of its measured ED50 to assure the inhibition was primarily measuring the binding characteristics of the competitor.
In particular, a protocol for carrying out the inhibition assay is given below.
Add 115 μL of 5μg/mL LB3.1 in 50 mM Tris HCl pH 9.6/azide to each well of a Costar EIA plate. Incubate the plate overnight at 4° C.
Wash the plate 4 times with water/0.05% Tween-20/azide. Add 200 μL of PBS /5% FCS/azide for 1 hour at 4° C. to block the plate. The plate may be held at this point for later use or used immediately.
Flip out the block. It is not necessary to wash the plate. At 50 μL of load buffer (50 mM Tris HCl, pH 8.0 0.75% octylglucoside). Add to this volume 50 μL of the reaction mix from day 2, step 3 below.
(1) Add the following to a polypropylene round bottom 96-well plate such as a Costar #3794:
(A) Diluent (Ca Mg free PBS adjusted to pH 6.5 with 0.1 M KH2 PO4/0.75% octylglucoside/azide).81 μL
(B) Competitor at 16.6 times the final concentration in diluent or diluent alone. 9 μL
(C) biotinylated rat myelin basic protein (BRMBP) 90-102; 1.5 nM for DR1 or 4.5 nM for DR4 (These are 5× stocks of final concentrations of 0.3 nM/DR1 or 0.9 nM/DR4) 30 μL
(D) 6.25 nM DR1Dw1 or 50 nM DR4Dw4 (these are Drosophila transmembrane DR) (This is a 5× stock of the final concentration of 1.25 or 10 nM.) 30 μL Add the DR last and mix well at this time 150 μL
(2) Incubate at 37° C. for 20 min and 5 hours.
(3) Add 50 μL of this reaction mixture to one well of the blocked antibody plate from day 2 above.
(4) Incubate overnight at 4° C. to capture the DR-peptide complexes.
(6) Add 125 μL of 100 ng/mL europium streptavidin (Wallac Inc.) in Ca Mg free PBS with 3.5 mg DTPA, 1.6 mL of 30% BSA/500 mL to each well.
(7) Incubate 2 to 4 hours at 4° C. […]

The mark [1] stands for this setting: incubation at 37° C. for 20 min, 0.3 nM biotinylated RMBP 90-102, 1.25 nM DR1Dw1, pH 6.5, read-out: IC50 /μM @ 20'.
The mark [2] stands for this setting: incubation at 37° C. for 5 hours, 0.3 nM biotinylated RMBP 90-102, 1.25 nM DR1Dw1, pH 6.5, read-out: IC50 /μM @ 5h.

Consider `CCCC(NC(=O)C(C)(C)NCCCC1CCCCC1)C(=O)NC(CC(C)C)C(N)=O` (stereo not drawn) [Example 2, N-α((2-Methyl-2-((3-cyclohexyl)propylamino))-propanoyl)-Nva-Leu-NH2], for which the IC50 runs as follows: under setting [1], 0.26 µM; under setting [2], 1.59 µM.

With `CCCC(NC(=O)C(Cc1cccnc1)NCCCC1CCCCC1)C(=O)NC1CCCCNC1=O` (stereo not shown) [Example 5], the IC50 is 0.21 µM under setting [1] and 1.43 µM under setting [2].

As to `CCC[C@H](NC(=O)[C@H](CCCCN)NC(=O)C=Cc1ccccc1C)C(=O)N[C@@H](CC(C)C)C(N)=O` [Example 13, α-[2-methylcinnamoyl]-Lys-Nva-Leu-NH2], the IC50 runs as follows: under setting [1], 0.25 µM; under setting [2], 1.7 µM.

For the molecule `CCCC(NC(=O)C(CCCCN)NC(=O)CC(C)c1ccccc1)C(=O)NC(CC(C)C)C(N)=O` (stereo not drawn) [Example 34, α-[3R-methyl-3-phenylpropionyl]-Lys-Nva-Leu-NH2], the IC50 runs as follows: under setting [1], 0.16 µM; under setting [2], 1.25 µM.

`CCCC(NC(=O)C(CCCCN)NC(=O)CC(C)C1CCCCC1)C(=O)NC(CC(C)C)C(N)=O` (stereo not drawn) [Example 36, α-[3R-methyl-3-cyclohexylpropionyl]-Lys-Nva-Leu-NH2]: the IC50 reads like this: under setting [1], 0.04 µM; under setting [2], 0.187 µM.

Turning to `CCCC(NC(=O)C(CCCCN)NCCCC1CCCCC1)C(=O)NC(CC(C)C)C(N)=O` (stereo not drawn) [Example 40, α-[3-Cyclohexylpropyl]-Lys-Nva-Leu-NH2], the IC50 was 0.0052 µM under setting [1] and 0.059 µM under setting [2].

Regarding `CCCC(NC(=O)C(CCCCN)NCCCC1CCCCC1)C(=O)NN(CC(C)C)C(=O)OCC` (stereo not drawn) [Example 48, α-[3 -Cyclohexylpropyl]-Lys-Nva-α-AzaLeu-OEt], the IC50 was 0.15 µM under setting [1] and 0.68 µM under setting [2].

For `CCCCN(NC(=O)C(CCC)NC(=O)C(CCCCN)NCCCC1CCCCC1)C(=O)OCC` (stereo not drawn) [Example 50, α-[3-Cyclohexylpropyl]-Lys-Nva-α-AzaNle-OEt], the IC50 runs as follows: under setting [1], 0.046 µM; under setting [2], 0.26 µM.

As to `CCCCN(NC(=O)C(CCC)NC(=O)C(CCCCN)NCC1CCc2ccccc2C1)C(=O)OCC` (stereo not drawn) [Example 52, α-[1,2,3,4-tetrahydronaphthyl-2-methyl]-Lys-Nva-α-AzaNle-OEt], the IC50 by setting is: under setting [1], 0.03 µM; under setting [2], 0.14 µM.

Regarding “α-[3-Phenylpropyl]-Lys-Nva-Leu-NH2 [Example 38]”, the IC50 runs as follows: under setting [1], 0.16 µM; under setting [2], 1.8 µM.

Turning to “α-[(1R,2S)-1-Cyclohexylcyclopropyl-1-carbonyl]-Lys-Nva-Leu-NH2 [Example 22]”, the IC50 under setting [1] was 0.012 µM and the IC50 under setting [2] was 1.08 µM.

The record behind these values is patent publication US5817757A, “Inhibitors of peptide binding to MHO class II proteins” (Merck & Co., Inc., priority 1996, dated 1998).
